These results are taken from article PMC7993833, “EDP-938, a novel nucleoprotein inhibitor of respiratory syncytial virus, demonstrates potent antiviral activities in vitro and in a non-human primate model” (PLoS Pathogens, 2021).

The structures appear in SMILES notation.

The subject of data set [1] is RSV-A Long. Nature of the data set: RT-qPCR assay, RSV-A Long in primary HBECs. The following applies: human respiratory syncytial virus, primary HBEC. The data set is classed as cell-based. (In general: Quantitative PCR measures a nucleic acid by following its amplification.)
For data set [2], the system named is RSV-A Long. Kind of data set: RT-qPCR assay, RSV-A Long in BHK cells. The data set is classed as cell-based. The following applies: human respiratory syncytial virus.
For data set [3], the system named is RSV-A M37. Kind of data set: RT-qPCR assay, RSV-A M37 in HEp-2 cells. The following applies: human respiratory syncytial virus. The data set is classed as cell-based. On the procedure: (§1) HEp-2, Vero, and BHK were seeded at 8,000 cells per well (cpw) in growth medium (Dulbecco’s Modified Eagle Medium (DMEM) with 1% GlutaMAX, 1% Penicillin/Streptomycin (P/S), 1% Non-Essential Amino Acids (NEAA), 10% Fetal Bovine Serum (FBS)) or (Minimum Essential Medium (MEM) with 10% FBS, 1% NEAA, 1% P/S) or (Eagle’s Minimum Essential Medium with L-Glutamine, with 10% FBS, 1% P/S) respectively. A549 seeded at 3,000 cpw in F-12K Kaighn’s Modification nutrient mixture with 10% FBS, 1% NEAA, 1% P/S. Cells seeded at time of infection in 96-well plates, final well volume 100μL. Compounds suspended in DMSO, serially diluted and added to wells at 0.5% final DMSO concentration. Viral stocks stabilized with 25% sucrose, previously titered using plaque assay, were added at desired MOI. Sucrose added to cells-only control wells to match percent added with virus. Unless otherwise noted, RSV-A strains were tested at 0.1 MOI and incubated for 5 days in a 37°C, 5% CO2 humidified incubator, and RSV-B at 0.5 MOI for 6 days. Cytopathic effect (CPE) determined using ATPlite (Perkin Elmer) measured with Envision luminometer. For RT-qPCR, RNA was extracted from whole well using Ambion RNAqueous-96 Automated Kit, and RT-qPCR run using Applied Biosystems TaqMan RNA-to-CT 1-Step Kit. […] All EC50s were calculated using the XLFit four-parameter logistic model 200 in Microsoft Excel.

Data set [4] has as its system RSV-A M37. Nature of the data set: CPE assay, RSV-A M37 in HEp-2 cells. The following applies: human respiratory syncytial virus. In kind it is cell-based. On the procedure: as §1
The test system of another data set is RSV A2. Kind of data set: RSV-infected African Green monkey model, viral load. The data set is classed as in vivo, African Green monkeys (Chlorocebus). On the procedure:
African Green monkeys (AGMs) are permissive for human RSV infection and support a relatively higher level of viral replication compared to cotton rats and BALB/c mice. It has been previously validated as a non-human primate model for assessing in vivo efficacy of potential RSV vaccines and antiviral drugs. To evaluate the activity of EDP-938 in the AGM model, 4 animals each were treated with 100 mg/kg BID with EDP-938, RSV-604, or vehicle control via oral gavage starting 24 hours prior to RSV challenge and continuing for an additional 5 days. Samples were collected through bronchoalveolar lavage (BAL) and nasopharyngeal (NP) swab at various time points to determine viral load. […] Viral load in the NP swab samples was also determined.
A study of EDP-938 and RSV-604 in the African Green monkey (AGM) animal model was performed by BIOQUAL, Inc (Rockville, Maryland). Methods were similar to those run in a study by Ispas et al.. Six (6) male and 6 female AGMs (Chlorocebus) of 4–5 kg were purchased from PrimGen (Hines, Illinois). Each animal was challenged with 2 x 10^5 PFU of RSV A2 viral inoculum (Virapur, San Diego, CA). Four animals (2 per sex) in each group were treated with EDP-938, RSV-604, or vehicle control (0.5% w/v methylcellulose). The animals were dosed via oral gavage twice daily (every 12 hours), starting 24 hours prior to RSV challenge, and then continuing for an additional 5 days (6 total days of dose administration). Bronchoalveolar lavage (BAL) samples and nasopharyngeal (NP) swabs were collected for viral load determination.

A further data set concerns RSV-B clinical isolates. Nature of the data set: Susceptibility of USA-derived RSV-B clinical isolates. The data set is classed as cell-based. The following applies: human respiratory syncytial virus. On the procedure:
Serial dilutions of the compound were added to cells infected with RSV-A isolates at an MOI of 0.1 (except for isolate 629-9-2 at an MOI of 0.01) or RSV-B isolates at an MOI of 0.5 (expect for isolate 629-24/2007 at an MOI of 0.0044) and were treated for 5 or 6 days, respectively. […] This is consistent with the fact that the viral N protein, which is the putative target of the antiviral effect of EDP-938, is the most conserved RSV protein [11].
HEp-2, Vero, and BHK were seeded at 8,000 cells per well (cpw) in growth medium (Dulbecco’s Modified Eagle Medium (DMEM) with 1% GlutaMAX, 1% Penicillin/Streptomycin (P/S), 1% Non-Essential Amino Acids (NEAA), 10% Fetal Bovine Serum (FBS)) or (Minimum Essential Medium (MEM) with 10% FBS, 1% NEAA, 1% P/S) or (Eagle’s Minimum Essential Medium with L-Glutamine, with 10% FBS, 1% P/S) respectively. A549 seeded at 3,000 cpw in F-12K Kaighn’s Modification nutrient mixture with 10% FBS, 1% NEAA, 1% P/S. Cells seeded at time of infection in 96-well plates, final well volume 100μL. Compounds suspended in DMSO, serially diluted and added to wells at 0.5% final DMSO concentration. […] Cytopathic effect (CPE) determined using ATPlite (Perkin Elmer) measured with Envision luminometer. […] All EC50s were calculated using the XLFit four-parameter logistic model 200 in Microsoft Excel. […]

For another data set, the system named is HEK-293 cells. Kind of data set: Cytotoxicity (ATPlite) in HEK-293 cells. The data set is classed as cell-based, human. Conditions: at up to 50 μM, 3 days. The protocol:
HEp-2, A549, and CHO cells were seeded at 3,000 cpw in their respective growth medium. CHO growth medium used was RPMI medium 1640 with 10% FBS, 1% P/S, 1% GlutaMAX. HEK-293 cells seeded at 10,000 cpw in DMEM growth medium. Undifferentiated HBECs were seeded in collagen-coated 96-well plates at 7,500 cpw in appropriate growth medium. Compound added and incubated for 3 days (4 days for HBECs) as described above. Plates read with ATPlite and CC50 calculated as EC50s as described above. SI = CC50/EC50 within a cell line.
A general note: ATP-based viability assays read luminescence as a measure of living cells.

One may read the EC50 as the concentration that produces a half-maximal response. By EC90 is commonly meant the concentration needed for an effect of 90%. On to `O=C1Nc2ccccc2C(c2ccccc2)=N[C@@H]1Nc1nnc(-c2ncc(C(F)(F)F)cc2N2CCOCC2)o1` [EDP-938], for which the EC50 with RSV-A Long [1] (144 h, RSV-A Long MOI 0.1, 6 days) turned out to be 21 ± 17 nM; with RSV-A Long [2] it was 16.8 µM; with RSV-A M37 [3], 54 ± 5 nM; in the data set on RSV-A M37 [4], 28 ± 4 nM; with RSV-B clinical isolates, 121 nM. For the same molecule, the EC90 worked out at 29 ± 23 nM with RSV-A Long [1] (RSV-A Long), 85 ± 21 nM in the data set with RSV-A M37 [3] and 34 ± 10 nM in the data set on RSV-A M37 [4]. Further, the “reduction in peak viral load” value with RSV A2 (100 mg/kg BID oral gavage) is given as ~ 4 log10. Besides, the “effect on RSV viral load vs vehicle control” value with RSV A2 (100 mg/kg BID oral gavage, BAL) is on record as “completely suppressed viral replication”. The “viral load reduction in BAL” value in the data set with RSV A2 (100 mg/kg BID oral gavage, Day 5, to below limit of detection (100 copies/mL)) is 4 log10. For the same molecule, the “viral load reduction in NP swab” value with RSV A2 (100 mg/kg BID oral gavage, Day 7, to below limit of detection (100 copies/mL)) was found to be 4 log10. Moreover, the “viral rebound after cessation of treatment” value with RSV A2 (BAL fluid, above the limit of detection) was “no viral rebound was observed”. Moreover, the cytotoxicity result in the data set on HEK-293 cells was “no significant cytotoxicity”.
